Test results reported in BindingDB's records for patent US12384753 (Enanta Pharmaceuticals, 2025).

Target: T1, 17-beta-hydroxysteroid dehydrogenase 13 (Homo sapiens, UniProt Q7Z5P4)
T1 sequence (Q7Z5P4 whole entry): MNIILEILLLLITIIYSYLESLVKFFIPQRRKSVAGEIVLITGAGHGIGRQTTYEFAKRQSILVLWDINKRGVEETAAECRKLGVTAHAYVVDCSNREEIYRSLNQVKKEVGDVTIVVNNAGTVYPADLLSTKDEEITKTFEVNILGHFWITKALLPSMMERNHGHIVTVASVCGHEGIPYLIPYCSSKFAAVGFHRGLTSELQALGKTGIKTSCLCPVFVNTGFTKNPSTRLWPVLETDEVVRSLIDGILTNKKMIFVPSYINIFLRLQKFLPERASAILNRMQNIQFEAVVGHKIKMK
Experiment: HSD17B13 rapid-fire mass spectrometry assay (RF/MS assay)
Text: Recombinant human HSD17B13 was expressed and purified from sf9 cells at Charles River Labs (Saffron Walden, UK). Leukotriene B4 (Catalog #71160-24-2) and 12-oxoleukotriene B4 (Catalog #20140) were purchased from Cayman Chemicals (Ann Arbor, Michigan.). NAD+ (Catalog #N8285), BSA (Catalog #A7030), DMSO (Catalog #D2650), and Tween-20 (Catalog #11332465001) were purchased from Sigma (St. Louis, MO). Formic acid (Catalog #28905) was from ThermoFisher Scientific and 384 deep well PP microplates (Catalog #784261) were from Greiner Bio-One. In a typical IC50 assay performed in a 384w PP microplate, test compounds (0-100 μM) were incubated with HSD17B13 (80 nM), LTB4 (10 μM), and NAD+ (0.5 mM) in 10 μL assay buffer (20 mM Tris (pH 7.5), BSA (0.005%), and Tween-20 (0.01%)) at RT for 3 h. The assays were quenched by adding 20 μL of 0.15% aqueous formic acid and the plates were frozen at −80° C. RF/MS analysis was performed at PureHoney Technologies (Billerica, MA) on a RapidFire RF300 system (Agilent Technologies, Inc.) coupled to an API 4000 triple quadrupole mass spectrometer (Sciex) equipped with Agilent RapidFire cartridge type A (C4). The mobile phase was 0.09% formic acid and 0.01% trifluoracetic acid in water (Buffer A) and 0.09% formic acid and 0.01% trifluoracetic acid in 80% aqueous acetonitrile (Buffer B). The RapidFire method conditions were the following: 250 ms aspirate, 3000 ms load/desalt, 4000 ms elute, and 500 ms re-equilibrate. RF-MS/MS was performed in negative polarity (−4500 V), the source temperature was 650° C., and gas 1 and gas 2 settings for nitrogen were set to 50. The curtain gas and collision gas were also nitrogen and were set to 20 and 12, respectively. Leukotriene B4 (335.3) and 12-oxoLeukotriene B4 (333.3) SRM transitions were optimized with Discovery Quant software and extracted ion counts for these analytes were determined. Data Analysis. HSD17B13 enzyme activity was measured as percent conversion of extracted ion counts and normalized to high and low controls to determine percent residual activity at various concentrations of test compounds. […]

IC50	SMILES
< 0.1 µM	COc1cc(C(=O)O)ccc1NS(=O)(=O)c1coc(-c2ccc(F)cc2)n1 [US12384753, Example 417]
< 0.1 µM	COc1cc(C(=O)O)ccc1NS(=O)(=O)c1coc(-c2ccc(Cl)cc2)n1 [US12384753, Example 418]
< 0.1 µM	COc1ccc(C#Cc2nc(S(=O)(=O)Nc3ccc(C(=O)O)cc3OC)cs2)c(C2CC2)c1 [US12384753, Example 396]
